Experimental data: patent US4275068A, “Lipid lowering alkylene glycols and ester derivatives thereof” (Siegfried AG, priority 1977, dated 1981)
Structures can show the parent of a compound that is named as a salt.

Tests used:
[1] = system: triglyceride content of the blood; assay: Triglyceride-lowering (dosis required for a 25% reduction of the triglyceride content of the blood); format: in vivo; conditions: dosis for 25% reduction of triglyceride content of the blood, mg/kg body weight; for ED25: read-out: Triglyceride ED 25
Excerpt: The ED25 value, in this instance the dosis in mg/kg body weight required for a 25% reduction of the triglyceride content of the blood, is better, i.e. lower, with all compounds (1) tested so far than the corresponding activity value of 22 of clofibrate.

Toxicity on mice (LD50) = conditions: mouse
Excerpt: Toxicity values and activities of the above compounds (1) were investigated by animal tests in accordance with conventional methods as described, for example, in the above mentioned publications, and compared with the corresponding data of clofibrate, the well known cholesterol-lowering agent: […]

[2] = system: cholesterol content of the blood; assay: Cholesterol-lowering (dosis required for a 25% reduction of the cholesterol content of the blood); format: in vivo; conditions: dosis for 25% reduction of cholesterol content of the blood; mg/kg body weight; read-out: Cholesterol ED 25
Excerpt: The ED25 value, that is, the dosis in mg/kg body weight required for a 25% reduction of the cholesterol content of the blood, is 151 for clofibrate but better, i.e. lower, with all compounds (1) tested so far.

SMILES	Triglyceride ED 25 [1] [mg/kg]	Triglyceride ED 25 ([1]; listed as clofibrate) [mg/kg]	LD50 (Toxicity on mice (LD50); in vivo) [mg/kg]	ED25 [2] [mg/kg]	ED25 [1] [mg/kg]	LD50 (Toxicity on mice (LD50)) [mg/kg]
CCOC(=O)C(C)(C)Oc1ccc(Cl)cc1 [Clofibrate, reference compound]	222	22	2180	151	–	–
OCCOc1ccc(Cc2ccc(Cl)cc2)cc1 [Example 1, 2-[4-(4'-chlorobenzyl)-phenoxy]-ethanol]	–	–	–	80	< 50	3000
CCC(C)(CO)Oc1ccc(Cc2ccc(Cl)cc2)cc1 (stereo not drawn) [Example 2, 2-methyl-2-[4-(4'-chlorobenzyl)-phenoxy]-butanol]	–	–	–	80	14	2960
OCC(Oc1ccc(Cc2ccc(Cl)cc2)cc1)c1ccccc1 (stereo not drawn) [Example 3, 2-phenyl-2-[4-(4'-chlorobenzyl)-phenoxy]-ethanol]	–	–	–	> 100	–	> 3000
O=C(OCCOc1ccc(Cc2ccc(Cl)cc2)cc1)c1cccnc1 [Example 4, Ester of nicotinic acid and 2-[4-(4'-chlorobenzyl)-phenoxy]-ethanol]	–	–	–	41	70	> 3000
CCC(C)(COC(=O)c1cccnc1)Oc1ccc(Cc2ccc(Cl)cc2)cc1 (stereo not drawn) [Example 5, Hydrochloride of nicotinic acid ester of 2-methyl-2-[4-(4'-chlorobenzyl)-phenoxy]-butanol]	–	–	–	30	40	> 3000
CC(=O)Oc1ccccc1C(=O)OCCOc1ccc(Cc2ccc(Cl)cc2)cc1 [Example 6, Acetylsalicylic acid ester of 2-[4-(4'-chlorobenzyl)-phenoxy]-ethanol]	–	–	–	70	> 100	> 3000
